Laboratory results from patent publication US7087634B2, “Cyclic AMP-specific phosphodiesterase inhibitors” (ICOS Corporation, priority 1999, dated 2006).

Experiments:
Type in all cases: biochemical
[1] = biological target: T1, PDE1B (Homo sapiens, UniProt Q01064); test: Inhibition of PDE1B
T1 construct: made in house; host or cells: Saccharomyces cerevisiae BJ2-54

[2] = biological target: T2, PDE5 (Homo sapiens, UniProt O76074); test: Inhibition of PDE5
T2 construct: made in house; host or cells: Saccharomyces cerevisiae BJ2-54
Description: (§1) Recombinant production of human PDE1B, PDE2, PDE4A, PDE4B, PDE4C, PDE4D, PDE5, and PDE7 was carried out similarly to that described in Example 7 of U.S. Pat. No. 5,702,936, incorporated herein by reference, except that the yeast transformation vector employed, which is derived from the basic ADH2 plasmid described in Price et al., Methods in Enzymology, 185, pp. 308–318 (1990), incorporated yeast ADH2 promoter and terminator sequences and the Saccharomyces cerevisiae host was the protease-deficient strain BJ2–54 deposited on Aug. 31, 1998 with the American Type Culture Collection, Manassas, Va., under accession number ATCC 74465. Transformed host cells were grown in 2×SC-leu medium, pH 6.2, with trace metals, and vitamins. After 24 hours, YEP medium-containing glycerol was added to a final concentration of 2×YET/3% glycerol. […]
(§2) Phosphodiesterase activity of the preparations was determined as follows. […] The [32P]5′-AMP or [32P]5′-GMP then was quantitatively converted to free [32P]phosphate and unlabeled adenosine or guanosine by the action of snake venom 5′-nucleotidase. […] PDE enzyme was present in quantities that yield <30% total hydrolysis of substrate (linear assay conditions). […] After centrifugation (750×g for 3 minutes) to sediment the charcoal, a sample of the supernatant was taken for radioactivity determination in a scintillation counter and the PDE activity was calculated. […]

[3] = biological target: T3, PDE7 (Homo sapiens, UniProt Q13946); test: Inhibition of PDE7
T3 construct: made in house; host or cells: Saccharomyces cerevisiae BJ2-54
Description: as §1, §2

T3 sequence (Q13946 whole entry): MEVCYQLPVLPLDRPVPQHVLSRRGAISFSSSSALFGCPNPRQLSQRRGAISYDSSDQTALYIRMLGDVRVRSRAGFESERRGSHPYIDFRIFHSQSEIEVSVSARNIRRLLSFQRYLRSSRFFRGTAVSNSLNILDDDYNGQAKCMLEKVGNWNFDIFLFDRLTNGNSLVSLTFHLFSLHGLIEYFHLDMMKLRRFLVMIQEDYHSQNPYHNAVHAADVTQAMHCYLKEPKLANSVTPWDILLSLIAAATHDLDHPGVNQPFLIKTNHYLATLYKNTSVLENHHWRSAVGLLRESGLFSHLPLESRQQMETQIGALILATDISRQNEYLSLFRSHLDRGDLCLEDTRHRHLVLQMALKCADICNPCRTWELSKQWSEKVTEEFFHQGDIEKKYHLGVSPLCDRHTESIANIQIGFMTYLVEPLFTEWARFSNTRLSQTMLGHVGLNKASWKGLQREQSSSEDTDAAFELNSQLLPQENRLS

Which IC50 [1] does the source give for `CCOC(=O)c1c(C)nn(-c2cccc([N+](=O)[O-])c2)c1C` [Example 2, 3,5-dimethyl-1-(3-nitrophenyl)-1H-pyrazole-4-carboxylic acid ethyl ester] here?
The IC50 was 25.7 µM.

And the IC50 [2]?
Its IC50 is 25.6 µM.

What about the IC50 [3] of the same compound?
Its IC50 is 39 µM.
